Columns and labels:
[1] = tested on: NOK (Normal oral keratinocyte); test: Cellular uptake, NOK cells (FRα-negative); type: cell-based; conditions: 1 and 3 hours of incubation, comparison among samples
Description: The cell internalization of CNPs was characterized by a fluorescence microscopy. As shown in FIGS. 14A and 14B, the CNPs quickly enter into NOK and MOC2 cells. […] Through the cellular uptake study, it was confirmed that CNPs efficiently enter into the cells within 1 hour.
To evaluate the cellular uptake, NOK (Normal oral keratinocyte) and MOC2 (immunogenic murine squamous cell carcinoma) cells were used as folate receptor alpha (FRα)-negative and -positive cells, respectively (FIGS. 15A and 15B).
For visualization of the cellular uptake, the NOK and MOC2 cells in each well were treated with free-Ce6, GCCe6, FA-GCCe6, CNP and FA-CNP and then subjected to DAPI staining. […] The fluorescence images matched to the corresponding data in FIGS. 15A and 15B. The enhancement of the cellular uptake is attributed to the presence of FA facilitating receptor-mediated endocytosis.

[2] = tested on: liver, lungs, kidney, heart, and spleen; test: Histology (H&E) of internal organs for toxicity; type: in vivo; conditions: compared to control (non-treated) group, 2 days post-intravenous injection
Description: After euthanizing mice with carbon dioxide gas, the internal organs (liver, kidney, spleen, heart, and lung) and tumor tissue were extracted and photographed using IVIS imaging. In addition, tumor tissues were excised from the mice at 2 days post-intravenous injection of free-Ce6, GCCe6, FA-GCCe6, CNP and FA-CNP (0.1 mL equivalent Ce6 concentration of 1.34×10^−5 mol/kg body weight) fixed with 10% Neutral Buffered Formalin solution, and embedded in paraffin, followed by sectioning. The sliced internal organs (5 μm in thickness) were stained with hematoxylin and eosin (H&E) and observed under an optical microscope. In addition, sliced tumor tissues were determined their FL and CL imaging under a confocal laser scanning microscope (Zeusis Nikon, Tokyo, Japan).

Substance: chlorin e6 [free-Ce6]
- cellular uptake amount [1]: no significant difference
- toxicity in H&E stained internal organs [2]: no significant cellular toxicity

Reference: US12582727B2, “Chemiluminescent and fluorescent nanoparticle for optical imaging of cancer” (priority 2018, dated 2026)
